Assay results reported in ChEMBL document CHEMBL6078648, “Prioritization of Eleven-Nineteen-Leukemia Inhibitors as Orally Available Drug Candidates for Acute Myeloid Leukemia” (J Med Chem, 2024).
Values belong to the compound of their own block, whether it stands above or below them. Activity calls are given as the source filed them. The rule behind the calls is not given here.

What was measured:
[1] = target: T1, Protein ENL (Homo sapiens) (UniProt Q03111); assay: Inhibition of ENL YEATS domain (unknown origin) (1 to 148 residues) preincubated with compound for 1 hr followed by alpha-bead addition and measured after 30 mins under dark condition by Alphascreen assay; details: time 90.0 min
T1 sequence (whole entry): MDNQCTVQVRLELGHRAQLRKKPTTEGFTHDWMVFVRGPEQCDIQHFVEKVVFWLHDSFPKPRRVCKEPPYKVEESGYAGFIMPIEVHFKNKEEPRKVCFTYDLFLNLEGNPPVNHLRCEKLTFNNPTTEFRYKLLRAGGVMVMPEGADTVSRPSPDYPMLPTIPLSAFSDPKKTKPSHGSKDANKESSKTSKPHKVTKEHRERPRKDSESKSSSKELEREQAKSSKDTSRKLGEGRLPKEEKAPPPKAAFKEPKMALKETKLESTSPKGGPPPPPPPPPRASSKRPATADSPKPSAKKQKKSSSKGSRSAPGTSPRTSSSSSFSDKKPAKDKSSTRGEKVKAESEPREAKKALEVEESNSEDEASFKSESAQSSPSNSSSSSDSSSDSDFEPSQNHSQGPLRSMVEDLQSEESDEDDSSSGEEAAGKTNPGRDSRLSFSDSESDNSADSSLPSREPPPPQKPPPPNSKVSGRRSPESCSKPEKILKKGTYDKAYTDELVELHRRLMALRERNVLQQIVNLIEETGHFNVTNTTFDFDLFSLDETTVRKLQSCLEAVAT

MV4-11 [2] = assay: Cytotoxicity against human MV4-11 cells assessed as cell viability incubated for 8 days by CCK-8 assay; assay type: functional; details: for Activity: time 8.0 day
MOLM-13 [3] = assay: Cytotoxicity against human MOLM-13 cells assessed as cell viability upto 100 uM incubated for 72 hrs by CCK-8 assay; assay type: functional, cell-based
MV4-11 [4] = assay: Cytotoxicity against human MV4-11 cells assessed as cell viability upto 100 uM incubated for 72 hrs by CCK-8 assay; assay type: functional, cell-based
MOLM-13 [5] = assay: Cytotoxicity against human MOLM-13 cells assessed as cell viability incubated for 8 days by CCK-8 assay; assay type: functional; details: for Activity: time 8.0 day
Jurkat [6] = assay: Antiproliferative activity against human Jurkat cells assessed as reduction in cell proliferation at 1 uM measured upto 2 weeks; assay type: functional, cell-based
[7] = Metabolic stability in human plasma assessed as parent compound remaining measured after 1 hrs by HPLC-MS/MS analysis; assay type: ADME, cell-free
[8] = Cytotoxicity against human HEK293T cells assessed as cell viability incubated for 8 days by CCK-8 assay; assay type: toxicity, cell-based, HEK-293T; details: time 8 day
[9] = Metabolic stability in mouse liver microsome assessed as half life; assay type: ADME; details: liver microsomes
MOLM-13 [10] = assay: Antitumor activity against human MOLM-13 cells xenografted in NSG mouse assessed as reduction in tumor burden at 400 mg/kg, po qd measured after 13 days; assay type: functional, organism-based; details: time 13.0 day
MOLM-13 [11] = assay: Downregulation of MEISI expression in human MOLM-13 cells at 1 uM measured for 72 hrs by qRT-PCR analysis; assay type: functional, cell-based
[12] = Toxicity in NSG mouse implanted with human MOLM-13 assessed as body weight loss at 200 mg/kg, po qd measured every 2 to 3 days; assay type: organism-based; details: in vivo, time 2-3 day
MOLM-13 [13] = assay: Downregulation of HOXA10 expression in human MOLM-13 cells at 1 uM measured for 72 hrs by qRT-PCR analysis; assay type: functional, cell-based
[14] = Toxicity in NSG mouse implanted with human MOLM-13 assessed as body weight loss at 400 mg/kg, po qd measured every 2 to 3 days and measured at day 15; assay type: organism-based; details: in vivo, 360 h, time 15 day
MV4-11 [15] = assay: Downregulation of MEISI expression in human MV4-11 cells at 1 uM measured for 72 hrs by qRT-PCR analysis; assay type: functional, cell-based
MOLM-13 [16] = assay: Downregulation of MYC expression in human MOLM-13 cells at 1 uM measured for 72 hrs by qRT-PCR analysis; assay type: functional, cell-based
MOLM-13 [17] = assay: Downregulation of MYB expression in human MOLM-13 cells at 1 uM measured for 72 hrs by qRT-PCR analysis; assay type: functional, cell-based
MOLM-13 [18] = assay: Downregulation of HOXA9 expression in human MOLM-13 cells at 1 uM measured for 72 hrs by qRT-PCR analysis; assay type: functional, cell-based
Jurkat [19] = assay: Cytotoxicity against human Jurkat cells assessed as cell viability incubated for 72 hrs by CCK-8 assay; assay type: functional
MV4-11 [20] = assay: Downregulation of MYC expression in human MV4-11 cells at 1 uM measured for 72 hrs by qRT-PCR analysis; assay type: functional, cell-based
MV4-11 [21] = assay: Induction of cell cycle arrest in human MV4-11 cells assessed as increase in accumulation of cells at G1 phase at 1 to 10 uM incubated for 72 hrs by PI staining based flow cytometric analysis; assay type: functional; details: dose 1-10 µM
MV4-11 [22] = assay: Downregulation of MYB expression in human MV4-11 cells at 1 uM measured for 72 hrs by qRT-PCR analysis; assay type: functional, cell-based
MV4-11 [23] = assay: Downregulation of HOXA9 expression in human MV4-11 cells at 1 uM measured for 72 hrs by qRT-PCR analysis; assay type: functional, cell-based
Jurkat [24] = assay: Cytotoxicity against human Jurkat cells assessed as reduction in cell viability at 16 uM incubated for 8 days by CCK-8 assay; assay type: functional, cell-based; details: time 8.0 day
[25] = Metabolic stability in human plasma assessed as parent compound remaining measured after 2 hrs by HPLC-MS/MS analysis; assay type: ADME, cell-free
MOLM-13 [26] = assay: Induction of cell cycle arrest in human MOLM-13 cells assessed as increase in accumulation of cells at G1 phase at 1 to 10 uM incubated for 72 hrs by PI staining based flow cytometric analysis; assay type: functional; details: dose 1-10 µM
HEK-293T [27] = assay: Cytotoxicity against HEK293T cells assessed as reduction in cell viability at 16 uM incubated for 8 days by CCK-8 assay; assay type: toxicity, cell-based; details: human, 192 h, time 8 day
[28] = Toxicity in NSG mouse implanted with human MOLM-13 assessed as animal survival at 400 mg/kg, po qd measured every 2 to 3 days and measured at day 15; assay type: organism-based; details: in vivo, 360 h, time 15 day
[29] = target: T1, Protein ENL (Homo sapiens); assay: Binding affinity to ENL in human MOLM-13 cells assessed as increase in protein thermal stabilization at 10 uM incubated for 3 to 6 hrs by CETSA analysis; assay type: cell-based; details: time 3-6 hrs
Jurkat [30] = assay: Cytotoxicity against human Jurkat cells assessed as reduction in cell viability at 10 uM incubated for 8 days by CCK-8 assay; assay type: functional, cell-based; details: time 8.0 day
[31] = Half life in CD-1 mouse at 20 mg/kg, iv measured upto 24 hrs by HPLC-MS/MS analysis; assay type: ADME, organism-based; details: in vivo
MOLM-13 [32] = assay: Antitumor activity against human MOLM-13 cells xenografted in NSG mouse assessed as reduction in tumor growth at 200 mg/kg, po qd measured after 13 days; assay type: functional, organism-based; details: time 13.0 day
MV4-11 [33] = assay: Downregulation of HOXA10 expression in human MV4-11 cells at 1 uM measured for 72 hrs by qRT-PCR analysis; assay type: functional, cell-based
[34] = Toxicity in NSG mouse implanted with human MOLM-13 assessed as tolerability at 200 mg/kg, po qd measured every 2 to 3 days; assay type: organism-based; details: in vivo, time 2-3 day
[35] = target: T1, Protein ENL (Homo sapiens); assay: Binding affinity to ENL in human MV4-11 cells assessed as increase in protein thermal stabilization at 10 uM incubated for 3 to 6 hrs by CETSA analysis; assay type: cell-based; details: time 3-6 hrs
HEK-293T [36] = assay: Cytotoxicity against HEK293T cells assessed as reduction in cell viability at 10 uM incubated for 8 days by CCK-8 assay; assay type: toxicity, cell-based; details: human, 192 h, time 8 day
[37] = Toxicity in NSG mouse implanted with human MOLM-13 assessed as body weight loss at 200 mg/kg, po qd; assay type: organism-based; details: in vivo
MOLM-13 [38] = assay: Antitumor activity against human MOLM-13 cells xenografted in NSG mouse at 400 mg/kg, po qd measured from 10 to 15 days; assay type: functional, organism-based; details: time 10-15 day
Jurkat [39] = assay: Cytotoxicity against human Jurkat cells assessed as cell viability incubated for 8 days by CCK-8 assay; assay type: functional; details: 192 h, time 8 day
[40] = Toxicity in NSG mouse implanted with human MOLM-13 assessed as tolerability at 200 mg/kg, po qd; assay type: organism-based; details: in vivo

SMILES: O=C(NCc1ccc(CNc2ncc(F)cn2)cc1)c1ccc2nncn2c1
Activity (MV4-11 [2]): inactive | Activity (MOLM-13 [3]): Active | Activity (MV4-11 [4]): Active | Activity (MOLM-13 [5]): inactive

SMILES: O=C(NC1CCC1)c1ccc2nc(-c3cccc(NS(=O)(=O)NCCN4CCCCC4)c3)cn2c1
half-life [9]: 9.3 min

SMILES: CSc1ccc(CNC(=O)c2ccc3nncn3c2)cc1
Activity (MV4-11 [2]): inactive | Activity (MOLM-13 [3]): Active | Activity (MV4-11 [4]): Active | Activity (MOLM-13 [5]): inactive

SMILES: CC(C)C1CCN1Cc1ccc(CNC(=O)c2ccc3nncn3c2)cc1 (centres undefined)
Activity (MOLM-13 [10]): Active | Activity (MOLM-13 [11]): Active | Activity [12]: Non-toxic | Activity (MOLM-13 [13]): Active | Activity [14]: Non-toxic | Activity (MV4-11 [15]): Active | Activity (MOLM-13 [16]): Active | Activity (MOLM-13 [17]): Active | Activity (MOLM-13 [18]): Active | CC50 (Jurkat [19]): > 64 µM | Activity (MV4-11 [20]): Active | Activity (MV4-11 [21]): Active | Activity (MV4-11 [22]): Active | Activity (MV4-11 [23]): Active | Activity (Jurkat [24]): Active | Activity (MOLM-13 [3]): Active | Stability [25]: 95.58% | Activity (MV4-11 [4]): Active | Activity (MOLM-13 [26]): Active | Activity (HEK-293T [27]): Non-toxic | Activity [28]: Non-toxic | Activity [29]: Active | Activity (Jurkat [30]): Active | half-life [31]: 1.85 h | Activity (MOLM-13 [32]): inactive | Activity (Jurkat [6]): inactive | Activity (MV4-11 [33]): Active | Stability [7]: > 60% | Activity [34]: Non-toxic | Activity [35]: Active | Activity (HEK-293T [36]): Non-toxic

Further lines, with some results ahead:

inhibition [1]: Active
SMILES: O=C(NCc1ccc(CN2CCOCC2)cc1)c1ccc2nncn2c1

Stability [7]: > 60%
SMILES: O=C(Nc1cc2[nH]c(CN3CCC3C3CC3)cc2cn1)c1ccc2nncn2c1 (centres undefined)
Activity (Jurkat [6]): inactive | CC50 at 192 h [8]: > 64 µM

Stability [25]: 94.54% | Activity [29]: Active | Activity [35]: Active
SMILES: CC(C)[C@H]1CCN1Cc1cc2cnc(NC(=O)c3ccc4nncn4c3)cc2[nH]1
Activity [37]: Non-toxic | Activity (MOLM-13 [38]): Active | Activity (MOLM-13 [11]): Active | Activity [12]: Non-toxic | Activity (MOLM-13 [13]): Active | CC50 (Jurkat [39]): > 64 µM | Activity (MV4-11 [15]): Active | CC50 (MV4-11 [2]; MV4-11, 192 h, time 8 day): 0.81 µM | Activity (MOLM-13 [16]): Active | Activity (MOLM-13 [17]): Active | Activity (MOLM-13 [18]): Active | Activity (MV4-11 [20]): Active | Activity (MV4-11 [21]): Active | Activity (MV4-11 [22]): Active | Activity (MV4-11 [23]): Active | Activity (MOLM-13 [26]): Active | Activity [40]: Non-toxic | Activity (Jurkat [6]): inactive | Activity (MV4-11 [33]): Active | Activity [34]: Non-toxic | CC50 (MOLM-13 [5]; MOLM-13, 192 h, time 8 day): 1.25 µM | CC50 at 192 h [8]: > 64 µM
